Broadly, the melting point is the temperature of the solid-liquid transition.

The text below walks through data of patent publication USRE43005E1, “Compositions and methods for their preparation from lepidium” (Naturex Inc., priority 1999, dated 2011).

`CCC(=O)/C=C/C=C/C=C/C(=O)CCCCCCCC(=O)NCc1ccccc1` [MA-9, N-benzyl-9,16-dioxo-10E,12E,14E-octadecatrienamide] had a melting point of 115 to 116 °C.

Consider `CCCCCCCC(=O)NCc1ccccc1` [MA-3, N-benzyl octanamide], for which the melting point lay in the range of 76 to 78 °C.
